{
  "source": "paper PMC8546421",
  "about": "“Molecular modelling of the FOXO4-TP53 interaction to design senolytic peptides for the elimination of senescent cancer cells” (EBioMedicine, 2021)",
  "key": {"[1]": {"target": "GFP (Aequorea victoria, UniProt P42212)", "assay": "Bio-layer Interferometry, GFP", "format": "binding", "conditions": "BLI", "procedure": "Bio-layer Interferometry (BLI) measurements were performed on a ForteBio Octet RED384 instrument (Molecular Devices) using ForteBio Data Acquisition software 9.0 and ForteBio biosensors (Molecular Devices) according to the manufacturer's instructions. Kinetic assays were carried out at 30°C using settings of Standard Kinetics Acquisition rate (5.0 Hz, averaging by 20) at a sample plate shake speed of 1,000 rpm. Streptavidin sensors (SA) (ForteBio) equilibrated in PBS were mock loaded (no ligand reference sensor) or loaded with 50 nM of N- terminal biotinylated ES2 peptide (New England Peptide, Inc.) with an approximate response of 1 nm. Ligand loaded SA sensors equilibrated in Kinetics buffer (ForteBio) to establish a baseline, were dipped into wells containing 2-fold dilutions of TP53 (Millipore Sigma Aldrich; Cat# 23-034), FOXO4 (OriGene Technologies; Cat# TP760655) or GFP analytes in kinetics buffer, or buffer alone (reference sample). […] Binding curves were analysed using ForteBio Data Analysis HT 10.0 evaluation software. […] Equilibrium dissociation constants KD which defines the strength of the interaction or affinity was calculated as the kinetic dissociation rate constant divided by the kinetic association rate constant."}, "[2]": {"system": "FOXO4 foci", "assay": "Immunofluorescence / quantitative imaging of FOXO4 foci", "format": "cell-based, human", "procedure": "For all immunofluorescence experiments, cells were plated in 96-well plates (Cellvis P96-1.5P). At the end of each experiment, cells were washed once with PBS and then fixed with 4% paraformaldehyde for 10 minutes at room temperature. For experiments with caspase-3/7 staining, the Caspase-3/7 reagent (Thermo Scientific Cat# C10723) was added to live cells for 30 minutes prior to fixation. Fixed cells were washed with PBS and then permeabilized with ice-cold methanol at 4°C for 10 minutes. Cells were washed with PBS and then blocked for 30 minutes with 1% Bovine Serum Albumin (BSA) in PBS. […]\nQuantitative imaging was performed as described with the following exceptions. […] Quantification of fluorescence intensities was performed using CellProfiler. Briefly, the DAPI staining was used to create a nuclear mask, and fluorescence intensities of the stained markers (FOXO4, CDKN2A, CDKN1A, and TP53) and FOXO4 foci were measured within the nuclear mask. DAPI fluorescence intensity was also quantified and used for DNA content measurements. […]"}},
  "note": "Entries after “also recorded” stand apart in the source; their conditions may differ. Where no end group is shown, it is not given here.",
  "data": [
    {"sequence": "PRKGGRRRRAWGRRRRRRRRRRRRRRAPRKRLTLA [ES2]", "values": [
      {"measurement": "Kd", "setting": "[1]; biotinylated ES2 on streptavidin sensors, 30°C, NB – no binding", "result": "> 200", "unit": "nM"},
      {"measurement": "binding of GFP (in words)", "setting": "[1]; six 2-fold dilutions of GFP starting at 200nM", "result": "minimal binding of GFP; also recorded: no binding was detected"},
      {"measurement": "concentration at which accumulation, co-localization with FOXO4 and disruption of focus formation observed", "setting": "[2]; BODIPY-labelled ES2, A375 cells, 2 h", "result": "≥ 8", "unit": "µM"},
      {"measurement": "FOXO4 foci after ES2 addition", "setting": "[2]; senescent A375 cells, ES2 8 µM for 4 h", "result": "caused a loss of FOXO4 foci"}
    ]}
  ]
}
